Reference: US4778796A, “ω-(3-pyridyl)alkenamide derivatives and anti-allergenic pharmaceutical compositions containing same” (Dainippon Pharmaceutical Co., Ltd., priority 1985, dated 1988)
Like-named read-outs stand apart in the source and are kept apart here.

Key:
[1] = tested on: experimental asthma; experiment: Inhibitory effect on experimental asthma in rats; format: in vivo, rat (male Wistar); details: Rattus norvegicus, po, 1 hour before antigen challenge
Protocol: (2) Inhibitory effect on experimental asthma in rats: This test was carried out by the method of Church and Miller [cf. Brit. […] Male Wistar rats (200-250 g) were sensitized by an intraperitoneal injection of 1 ml of a 0.01% egg albumin solution containing 1 mg of Al(OH)3. Two weeks later, the rats were anesthetized with 1.3 g/kg of urethane. The trachea and jugular vein were cannulated. Respiratory volume and velocity were measured by attaching one end of the tracheal cannula to respiratory volume meter connected to a carrier amplifier and an integrator. The rats were challenged by an intravenous injection of 4 mg/kg of egg ablumin 30 minutes after the anesthesia. Test compounds, dissolved or suspended in a 0.5% aqueous tragacanth solution, were administered orally 1 hour before the antigen challenge. Each group of 4 rats was used for each dose of the test compound. ED50 values were calculated from the best fit linear regression line of inhibitory rates of respiratory volume and velocity in each dose.

[2] = biological target: T1, 5-lipoxygenase (Cavia porcellus, UniProt A0A286X958); experiment: Inhibitory effect on 5-lipoxygenase activity in guinea pig leukocytes; format: biochemical, guinea pig (male Hartley); details: read-out: 5-Lipoxygenase inhibit. activity, Inhibition
T1 construct: The cytosol fraction of peritoneal exudate cells from male Hartley guinea pigs (400-700 g) was used as 5-lipoxygenase; from tissue; host or cells: cytosol fraction of peritoneal exudate cells (leukocytes) of male Hartley guinea pigs
T1 sequence (A0A286X958 1-674): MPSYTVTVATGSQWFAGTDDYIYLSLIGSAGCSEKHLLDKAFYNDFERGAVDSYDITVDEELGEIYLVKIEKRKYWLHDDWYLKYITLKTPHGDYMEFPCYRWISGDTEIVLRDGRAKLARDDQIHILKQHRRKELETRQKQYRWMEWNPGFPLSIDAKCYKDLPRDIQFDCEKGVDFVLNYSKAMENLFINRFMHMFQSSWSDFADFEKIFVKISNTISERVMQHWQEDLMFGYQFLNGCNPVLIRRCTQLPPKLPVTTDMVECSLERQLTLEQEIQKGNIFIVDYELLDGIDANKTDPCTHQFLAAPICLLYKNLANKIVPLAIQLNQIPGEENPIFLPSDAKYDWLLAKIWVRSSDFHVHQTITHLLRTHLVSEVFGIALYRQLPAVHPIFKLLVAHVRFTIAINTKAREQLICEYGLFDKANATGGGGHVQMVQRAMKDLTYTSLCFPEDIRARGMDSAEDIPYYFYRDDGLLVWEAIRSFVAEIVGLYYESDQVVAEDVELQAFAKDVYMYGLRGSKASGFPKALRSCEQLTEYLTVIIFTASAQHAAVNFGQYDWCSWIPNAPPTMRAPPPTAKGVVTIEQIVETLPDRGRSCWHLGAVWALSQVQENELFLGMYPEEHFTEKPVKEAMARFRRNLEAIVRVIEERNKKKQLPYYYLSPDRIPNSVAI
Protocol: (1) Inhibitory effect on 5-lipoxygenase activity in guinea pig leukocytes:
This test was carried out by the method of Miyamoto and Obata (cf. "Perspectives in Prostaglandin Research," ed. by Y. Shiokawa et al., Excepta Medica, Amsterdam-Oxford-Princeton, 1983, p78) with minor modifications.
The cytosol fraction of peritoneal exudate cells from male Hartley guinea pigs (400-700 g) was used as 5-lipoxygenase. The standard reaction mixture contained 50 mM potassium phosphate buffer, 1 mM CaCl2, 1 mM glutathione, 1 mM adenosine triphosphoric acid, 10 μM indomethacin and the enzyme. The mixture was incubated for 5 minutes at 30° C. after addition of [1-^14 C]arachidonic acid (0.02 μCi). The reaction was terminated by addition of 0.6 ml of the cold organic solvents (diethyl ether/methanol/0.2M citric acid=30/4/1). The organic layer (300 μl) was applied onto a precoated silica gel 60F254 glass plate (E. Merck, West Germany). Radioactivity on the plate was monitored by a radiochromatogram scanner (Packard, U.S.A.). 5-Lipoxygenase activity was calculated according to the following equation. [formula]
The effects of the test compounds were expressed in terms of percent inhibition.

[3] = tested on: human basophils; experiment: Inhibitory effect on histamine release induced by anti-human IgE antibody from healthy human basophils; format: cell-based
Protocol: (3) Inhibitory effect on histamine release induced by anti-human IgE antibody from healthy human basophils:
Basophils from nonallergic volunteers were collected by the method of Levy and Osler [cf. […] The cells were washed once with a cold Tris-A buffer at pH 7.4 (25 mM Tris, 120 mM NaCl, 5 mM KCl and 0.03% human serum albumin) containing 4 mM EDTA and twice with Tris-A buffer. After washing, the cells were resuspended at 5-10×10^6 leukocytes/ml in Tris-ACM buffer at pH 7.6 (Tris-A buffer, 0.6 mM CaCl2 and 1 mM MgCl2). One ml of the cell suspension was incubated with 0.1 ml of a solution of test compound or vehicle for 15 minutes at 37° C., and then for further 45 minutes with 0.1 ml of anti-human IgE antibody. After ice-cooling, the reaction mixtures were centrifuged at 1,200 rpm for 8 minutes at 4° C. The supernatant fluids and the cells were analysed separately for histamine by a modification of the spectrophotofluorometric technique of Shore et al. [cf. […] Histamine release rate was calculated according to the following equation. [formula] A: total histamine (supernatant+cell) B: supernatant histamine without anti-IgE
C: supernatant histamine with anti-IgE
Inhibitory rate was calculated from histamine release rates without vs. with test compound.

[4] = Acute lethal toxicity in mice; details: mouse, in vivo; oral, mortality observed for two weeks
Protocol: Test 3 Acute lethal toxicity in mice
Test compounds were suspended in a 0.5% aqueous tragacanth solution. LD50 values were calculated according to the method of Litchfield and Wilcoxon [cf. J. Pharmacol. Exp. Ther., 96, 99 (1949)].

Cc1ccc(C=CC(=O)NCCCCN2CCN(C(c3ccccc3)c3ccccc3)CC2)cn1 [Example 2, N-[3-(6-methyl-3-pyridyl)acryloyl]-4-(4-diphenylmethyl-1-piperazinyl)butylamine]
ED50 ([1]; respiratory velocity, read-out: ED50, respiratory velocity): 5.5 mg/kg
ED50 ([1]; respiratory volume, read-out: ED50, respiratory volume): 14.4 mg/kg
inhibition at 30 µM ([2]; 3 × 10^-5 M): 87.2%
inhibition at 10 µM ([2]; 10^-5 M): 45.7%
IC50 ([3]; anti-human IgE antibody, human basophils, read-out: Histamine release inhibit. IC50): 34 µM
ability to inhibit histamine release (in words) ([3]; compared with ketotifen fumarate): superior to ketotifen fumarate in the ability to inhibit histamine release
LD50 at 336 h [4]: 601 mg/kg
